Earlier results in patent US20070003615A1, “Nanoparticulate clopidogrel and aspirin combination formulations” (Elan Pharma International Limited, priority 2005, published 2007).
Where a name gives a salt, the structure may show the parent alone. Read-outs that look alike come from different tables or passages of the source.

How the values were obtained:
[1] = dry air versus contact with moisture
[2] = not given; remark: listed apart in the source
[3] = in vivo

## CC(=O)Oc1ccccc1C(=O)O [Aspirin, 2-acetoxybenzoic acid]
[1]
  stability in air / moisture: stable in dry air, but gradually hydrolyses in contact with moisture

## COC(=O)[C@H](c1ccccc1Cl)N1CCc2sccc2C1 [Clopidogrel bisulfate, methyl (+)-(S)-α-(2-chorophenyl)-6,7-dihydrothieno[3,2-c]pyridine-5(4H)-acetate sulfate (1:1)]
Patients with acute coronary syndrome
  rate of combined end point of cardiovascular death, MI, or stroke (and with refractory ischemia): decrease the rate
Recent MI, recent stroke, or established arterial disease
  rate of combined end point of new ischemic stroke, new MI, and other vascular death: reduce the rate
[2]; ethyl ether
  solubility in ethyl ether: practically insoluble
[2]; methanol
  solubility in methanol: dissolves freely
[2]; methylene chloride
  solubility in methylene chloride: dissolves sparingly
[2]; pH 1.0
  solubility at pH 1.0: freely soluble
[2]; water at neutral pH
  solubility in water: practically insoluble
[3]
  gastric irritation (esophagus and stomach): significant gastric irritation

## COC(=O)[C@H](c1ccccc1Cl)N1CCc2sccc2C1 [clopidogrel]
[2]; water, pH not stated
  solubility in water: practically insoluble
